Source: ChEMBL document CHEMBL1201862, “PubChem BioAssay data set” (2004)
Calls of active or inactive are those of the source.

Experiments:
[1] = biological target: T1, E3 ubiquitin-protein ligase XIAP (Homo sapiens, UniProt P98170); experiment: Counter Screen using XIAP-Bir3 for Chemical Antagonists of Bir1/2 domains of IAP-family anti-apoptotic proteins. [Related pubchem assays (depositor defined):AID1018, AID1449, AID1514, AID1638, AID1749, AID1750, AID488957, AID488963]
[2] = biological target: T1, E3 ubiquitin-protein ligase XIAP; experiment: XIAP antagonists, biochemical, IAP family, fluorescence polarization (AID 1018); format: functional
[3] = biological target: Intestinal-type alkaline phosphatase (Mus musculus, UniProt P24822); experiment: PubChem AID 488785; format: functional
Sequence of Intestinal-type alkaline phosphatase (Mus musculus, UniProt P24822) (P24822 whole entry): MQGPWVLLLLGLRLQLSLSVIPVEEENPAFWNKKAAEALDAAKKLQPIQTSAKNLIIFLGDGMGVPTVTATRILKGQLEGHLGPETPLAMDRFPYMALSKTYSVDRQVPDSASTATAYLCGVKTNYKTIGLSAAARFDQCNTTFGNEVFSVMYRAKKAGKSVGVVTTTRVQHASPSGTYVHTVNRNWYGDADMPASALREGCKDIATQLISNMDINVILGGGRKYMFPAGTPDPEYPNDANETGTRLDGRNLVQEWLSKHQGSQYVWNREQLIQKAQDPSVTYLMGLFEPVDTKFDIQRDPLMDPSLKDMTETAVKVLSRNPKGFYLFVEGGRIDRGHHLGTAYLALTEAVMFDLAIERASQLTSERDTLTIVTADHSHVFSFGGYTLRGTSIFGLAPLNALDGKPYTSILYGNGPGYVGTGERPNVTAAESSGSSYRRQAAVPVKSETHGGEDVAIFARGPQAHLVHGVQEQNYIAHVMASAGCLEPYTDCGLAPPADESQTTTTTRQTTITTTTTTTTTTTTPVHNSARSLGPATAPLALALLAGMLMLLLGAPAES

[4] = biological target: T2, Alkaline phosphatase, tissue-nonspecific isozyme (Homo sapiens, UniProt P05186); experiment: TNAP enzyme inhibition by screening hits, dose response, selectivity assay for mouse IAP inhibitor project, biochemical, human TNAP, uHTS hits (AID 488906); format: functional
T2 sequence (P05186 whole entry): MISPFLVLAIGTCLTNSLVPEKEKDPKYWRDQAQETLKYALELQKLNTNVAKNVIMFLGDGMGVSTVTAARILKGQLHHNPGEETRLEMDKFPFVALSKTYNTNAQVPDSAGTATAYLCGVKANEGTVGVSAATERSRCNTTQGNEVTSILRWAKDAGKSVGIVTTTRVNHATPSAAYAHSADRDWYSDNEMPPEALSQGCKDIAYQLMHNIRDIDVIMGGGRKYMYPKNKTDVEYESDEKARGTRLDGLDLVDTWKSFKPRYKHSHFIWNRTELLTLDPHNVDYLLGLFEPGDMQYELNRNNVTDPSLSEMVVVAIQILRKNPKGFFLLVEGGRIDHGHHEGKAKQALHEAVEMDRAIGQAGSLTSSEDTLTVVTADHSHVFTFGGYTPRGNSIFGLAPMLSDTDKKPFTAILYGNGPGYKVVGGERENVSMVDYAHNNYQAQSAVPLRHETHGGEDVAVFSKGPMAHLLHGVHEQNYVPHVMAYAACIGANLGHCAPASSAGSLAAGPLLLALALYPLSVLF

[5] = biological target: Intestinal-type alkaline phosphatase (Homo sapiens, UniProt P09923); experiment: inhibition of human intestinal alkaline phosphatase – biochemical, dose response (AID 488876); format: functional
Sequence of Intestinal-type alkaline phosphatase (Homo sapiens, UniProt P09923) (P09923 whole entry): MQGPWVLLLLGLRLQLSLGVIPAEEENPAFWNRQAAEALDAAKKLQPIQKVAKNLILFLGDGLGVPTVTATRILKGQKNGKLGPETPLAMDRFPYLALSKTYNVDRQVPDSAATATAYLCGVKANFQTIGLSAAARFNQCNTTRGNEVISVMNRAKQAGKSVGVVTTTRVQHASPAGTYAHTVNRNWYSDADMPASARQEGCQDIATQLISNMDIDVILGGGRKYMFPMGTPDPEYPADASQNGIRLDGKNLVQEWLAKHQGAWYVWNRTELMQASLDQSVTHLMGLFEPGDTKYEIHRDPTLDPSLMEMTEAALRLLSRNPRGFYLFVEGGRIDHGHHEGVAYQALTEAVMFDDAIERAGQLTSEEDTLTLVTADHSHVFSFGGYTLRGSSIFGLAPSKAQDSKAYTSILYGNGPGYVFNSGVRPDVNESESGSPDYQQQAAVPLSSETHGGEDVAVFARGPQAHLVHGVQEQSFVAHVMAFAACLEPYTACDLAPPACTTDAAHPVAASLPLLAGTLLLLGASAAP

[6] = inhibitors of firefly luciferase expression or activity, dose response, H4 neuroglioma cells, luminescence (AID 1990); format: functional, cell-based
[7] = Luminescence Cell-Based Dose Response HTS to Identify Inhibitors of 5'UTR Stem-Loop Driven Prion Protein mRNA Translation in H4 Neuroglioblastoma Cells. [Related pubchem assays: 1827 (Project Summary), 1813 (Primary HTS)]; format: functional
[8] = inhibitors of SNCA 5'UTR-driven reporter translation, confirmation, H4 neuroglioma cells, luminescence (AID 1988); format: functional, cell-based
cells [9] = format: functional, cell-based
cells [10] = format: functional, cell-based; remark: listed apart in the source
Exodeoxyribonuclease V = biological target: T3, Exodeoxyribonuclease V (Escherichia coli (strain K12), UniProt P04993+P07648+P08394); experiment: E. coli RecBCD inhibitors, dose response, counter-screen for AddAB inhibitor project, absorbance, V66 E. coli, mutant T4 phage (AID 492957); format: functional, cell-based, Escherichia coli str. K-12 substr. MG1655
T3 sequence (P04993 whole entry): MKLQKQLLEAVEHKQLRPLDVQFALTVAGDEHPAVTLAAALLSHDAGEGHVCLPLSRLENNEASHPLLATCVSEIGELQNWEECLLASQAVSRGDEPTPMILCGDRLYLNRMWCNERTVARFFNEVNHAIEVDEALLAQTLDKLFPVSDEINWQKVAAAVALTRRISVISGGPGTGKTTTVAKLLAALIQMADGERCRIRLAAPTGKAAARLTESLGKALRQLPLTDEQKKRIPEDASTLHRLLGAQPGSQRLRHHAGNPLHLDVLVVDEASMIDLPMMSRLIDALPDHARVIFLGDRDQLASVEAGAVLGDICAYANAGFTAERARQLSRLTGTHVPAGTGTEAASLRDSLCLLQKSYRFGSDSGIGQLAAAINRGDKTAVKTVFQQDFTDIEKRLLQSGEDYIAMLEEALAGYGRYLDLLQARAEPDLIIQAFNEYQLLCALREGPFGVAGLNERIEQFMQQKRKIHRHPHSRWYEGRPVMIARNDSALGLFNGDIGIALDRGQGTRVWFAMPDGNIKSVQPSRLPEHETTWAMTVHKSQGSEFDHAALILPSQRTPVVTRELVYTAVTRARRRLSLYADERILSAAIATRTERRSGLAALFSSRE
T3 sequence (P07648 whole entry): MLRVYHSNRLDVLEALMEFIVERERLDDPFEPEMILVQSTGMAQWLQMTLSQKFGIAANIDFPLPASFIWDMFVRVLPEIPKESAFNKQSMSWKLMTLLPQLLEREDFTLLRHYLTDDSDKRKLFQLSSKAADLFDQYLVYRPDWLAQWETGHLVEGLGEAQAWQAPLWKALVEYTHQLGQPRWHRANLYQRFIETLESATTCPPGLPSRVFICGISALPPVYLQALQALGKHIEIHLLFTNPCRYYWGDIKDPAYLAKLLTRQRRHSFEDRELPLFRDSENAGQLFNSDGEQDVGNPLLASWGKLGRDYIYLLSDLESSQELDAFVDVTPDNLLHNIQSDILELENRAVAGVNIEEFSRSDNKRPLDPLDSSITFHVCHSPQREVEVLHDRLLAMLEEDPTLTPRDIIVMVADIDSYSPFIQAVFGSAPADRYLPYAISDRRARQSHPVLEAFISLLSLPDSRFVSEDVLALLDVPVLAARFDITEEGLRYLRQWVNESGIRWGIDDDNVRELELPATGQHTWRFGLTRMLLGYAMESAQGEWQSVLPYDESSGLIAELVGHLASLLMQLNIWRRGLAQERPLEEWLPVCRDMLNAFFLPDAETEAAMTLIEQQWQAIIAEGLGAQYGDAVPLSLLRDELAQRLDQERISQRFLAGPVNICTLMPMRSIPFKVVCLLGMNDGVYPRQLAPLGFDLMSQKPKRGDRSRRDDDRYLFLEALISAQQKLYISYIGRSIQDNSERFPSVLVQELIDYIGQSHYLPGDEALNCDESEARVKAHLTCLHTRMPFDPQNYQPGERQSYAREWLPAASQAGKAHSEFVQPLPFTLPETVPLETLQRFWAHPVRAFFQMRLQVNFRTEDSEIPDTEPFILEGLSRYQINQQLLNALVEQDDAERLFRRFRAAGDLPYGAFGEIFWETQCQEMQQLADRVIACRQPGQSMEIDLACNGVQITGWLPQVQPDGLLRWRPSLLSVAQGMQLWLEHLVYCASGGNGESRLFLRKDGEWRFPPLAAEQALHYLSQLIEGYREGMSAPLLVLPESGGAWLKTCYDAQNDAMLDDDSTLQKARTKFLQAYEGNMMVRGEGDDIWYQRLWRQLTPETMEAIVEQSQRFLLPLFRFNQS
T3 sequence (P08394 whole entry): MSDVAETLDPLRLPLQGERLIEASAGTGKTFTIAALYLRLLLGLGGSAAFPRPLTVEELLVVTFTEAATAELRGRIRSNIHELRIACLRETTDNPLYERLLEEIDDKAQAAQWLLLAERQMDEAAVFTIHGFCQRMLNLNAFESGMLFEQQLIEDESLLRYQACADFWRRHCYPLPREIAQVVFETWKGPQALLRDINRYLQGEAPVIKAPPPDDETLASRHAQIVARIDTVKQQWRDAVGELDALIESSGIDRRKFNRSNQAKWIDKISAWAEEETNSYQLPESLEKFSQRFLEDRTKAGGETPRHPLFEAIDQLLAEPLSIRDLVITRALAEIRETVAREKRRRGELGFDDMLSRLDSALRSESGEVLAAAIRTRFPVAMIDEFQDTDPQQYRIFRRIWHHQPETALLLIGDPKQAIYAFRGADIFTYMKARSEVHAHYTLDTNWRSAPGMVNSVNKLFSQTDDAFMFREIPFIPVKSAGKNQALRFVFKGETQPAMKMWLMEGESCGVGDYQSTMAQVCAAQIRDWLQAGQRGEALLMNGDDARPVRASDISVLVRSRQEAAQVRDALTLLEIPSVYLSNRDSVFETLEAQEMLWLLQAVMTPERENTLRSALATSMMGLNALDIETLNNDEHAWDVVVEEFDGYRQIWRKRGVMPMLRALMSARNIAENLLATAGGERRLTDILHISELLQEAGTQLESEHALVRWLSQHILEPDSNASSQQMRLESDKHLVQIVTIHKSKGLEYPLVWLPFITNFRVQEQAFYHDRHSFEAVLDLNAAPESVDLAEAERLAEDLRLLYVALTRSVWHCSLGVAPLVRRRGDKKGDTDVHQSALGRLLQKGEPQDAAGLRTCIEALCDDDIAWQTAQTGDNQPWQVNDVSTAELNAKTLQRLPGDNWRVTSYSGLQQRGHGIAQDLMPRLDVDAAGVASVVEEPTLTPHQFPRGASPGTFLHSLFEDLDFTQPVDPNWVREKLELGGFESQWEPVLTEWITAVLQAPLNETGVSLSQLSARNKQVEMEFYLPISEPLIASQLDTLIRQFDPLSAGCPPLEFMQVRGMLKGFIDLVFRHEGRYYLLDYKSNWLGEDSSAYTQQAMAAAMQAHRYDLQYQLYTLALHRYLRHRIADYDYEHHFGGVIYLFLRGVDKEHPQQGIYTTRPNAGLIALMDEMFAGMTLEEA

[11] = Counterscreen for AddAB inhibitors: absorbance-based bacterial cell-based high throughput dose response assay for inhibitors of bacterial viability. [Related pubchem assays (depositor defined):AID435030, AID449728, AID449731, AID488942, AID488955, AID488956]; format: functional
[12] = biological target: Heat shock protein HSP 90-alpha (Homo sapiens, UniProt P07900); format: functional, organism-based
INS1 = experiment: beta cell apoptosis inhibitors, cytokine rescue, dose response, luminescence, retest (AID 449756); format: functional, cell-based; conditions: Rattus norvegicus;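 also: cell death triggered by IL-1 beta plus TNF-alpha plus IFN-gamma mixture; protective hits raise ATP signal compared with cytokine alone wells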
[13] = human group III sPLA2 inhibitors, dose response, biochemical, QFRET, IC50 (AID 743457);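 also: green fluorescence rise as the enzyme cleaves BODIPY PC-A2 in liposomes; potency for inhibition of the enzyme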
[14] = NIH-3T3 fibroblast cytotoxicity, dose response, cytotoxicity control, cell-based, fluorescence, Alamar Blue, secondary assay (AID 2327); format: functional;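 also: NIH-3T3 mouse fibroblasts cultured with fluconazole at 8 µg/mL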
[15] = C. albicans growth with fluconazole, confirmation, fluorescence, retest (AID 2467); format: functional, cell-based
[16] = inhibitors of intracellular T. cruzi replication, confirmation, NIH3T3 host cells, beta-gal luminescence (AID 2044); format: functional, cell-based;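 also: intracellular parasites grown in NIH/3T3 mouse fibroblasts as host cells; luminescent beta-galactosidase reporter signal from transgenic T. cruzi replicating inside host cells; inhibitors lower the luminescence signal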
[17] = cytotoxicity toward NIH3T3 fibroblasts, dose response, counter-screen, cell-based, ATP luminescence, mouse fibroblasts (AID 2010); format: functional;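 also: cells exposed to compound for about 90 hours before reading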
HEK293 [18] = experiment: NOD1 signaling inhibitors, primary screen, cell-based, luminescence, uHTS (AID 1578); format: functional; conditions: Homo sapiens
[19] = test system: Streptococcus sp. 'group A'; experiment: growth inhibition of control SK(-) GAS strain, dose response, counter-screen for streptokinase expression inhibitor project, luminescence, kanamycin, BacTiterGlo, confirmation (AID 1900); format: functional, organism-based
HEK293 [20] = experiment: cells; format: functional, cell-based; conditions: Homo sapiens
HEK293 [21] = experiment: cells; format: functional, cell-based; conditions: Homo sapiens; remark: listed apart in the source
HEK293 [22] = experiment: NOD2 signaling inhibitors in MDP-stimulated cells, cell-based, uHTS, luminescence (AID 2001); format: functional; conditions: Homo sapiens
Streptococcus = experiment: Group A Streptococcus viability loss, dose response, counter-screen for streptokinase expression inhibitor project, luminescence, BacTiterGlo (AID 1915); format: functional, organism-based;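 also: potency for reduction of bacterial viability or growth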
[23] = CRF-BP/CRF-R2 complex antagonists, dose response, cell-based, uHTS hits, 384-well (AID 651639); format: functional, Homo sapiens; conditions: read-out: IC50_Mean
HEK293 [24] = experiment: cells; conditions: Homo sapiens

T1 sequence (P98170 whole entry): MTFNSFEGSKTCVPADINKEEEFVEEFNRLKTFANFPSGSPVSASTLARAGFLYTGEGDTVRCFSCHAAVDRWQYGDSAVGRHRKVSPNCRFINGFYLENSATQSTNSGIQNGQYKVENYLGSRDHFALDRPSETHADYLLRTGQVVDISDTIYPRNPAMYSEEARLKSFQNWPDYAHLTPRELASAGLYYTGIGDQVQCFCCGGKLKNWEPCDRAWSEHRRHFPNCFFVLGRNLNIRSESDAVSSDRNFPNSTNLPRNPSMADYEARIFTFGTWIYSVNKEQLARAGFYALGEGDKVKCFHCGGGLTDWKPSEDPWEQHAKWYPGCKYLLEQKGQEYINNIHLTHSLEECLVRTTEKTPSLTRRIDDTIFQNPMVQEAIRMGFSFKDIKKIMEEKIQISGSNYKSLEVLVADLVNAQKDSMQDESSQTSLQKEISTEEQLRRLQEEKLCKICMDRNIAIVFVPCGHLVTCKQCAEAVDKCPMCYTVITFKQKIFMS

CCN(CC)S(=O)(=O)c1cccc(C(=O)c2c(C)cc3ccccn23)c1
IC50 [1]: > 100 µM (inactive)
IC50 [2]: > 100 µM (not active)

Cc1ccc(CN2C3CCCC2CC(NC(=O)Nc2cccc(F)c2)C3)cc1 (centres undefined)
IC50 [3]: 9.9 µM (active)
IC50 [4]: 63.3 µM (active)
IC50 [5]: > 100 µM (inactive)

O=C(c1cc(-n2cnnc2)ccc1Cl)N1CCN(c2nc(-c3ccccc3)cs2)CC1
EC50 [6]: > 30 µM (not active)
EC50 [7]: 15.1 µM (active)
EC50 [8]: > 120 µM (not active)
IC50 [1]: > 100 µM (inactive)
IC50 [2]: > 100 µM (not active)

CCCCC(=O)NC(c1cccs1)c1cc(Cl)c2cccnc2c1O (centres undefined)
EC50 (cells [9]): 57.5 µM (active)
EC50 (cells [10]): > 350 µM (not active)
IC50 (Exodeoxyribonuclease V): > 119 µM (inactive)
IC50 [11]: > 119 µM (inactive)
AC50 [12]: 3.6 µM (active)
AC50 (INS1): 1.19 µM (active)
IC50 [13]: > 122 µM (inactive)

O=C(Nc1cccc(-c2cccc(Cl)c2)c1)C1CCN(C2CCC2)CC1
IC50 [3]: 9.39 µM (active)
IC50 [4]: 11.8 µM (active)
IC50 [5]: 8.64 µM (active)

C=CCc1cccc(/C=N/NC(=O)CNc2ccccc2OC)c1O
EC50 [14]: > 160 µM (inactive)
EC50 [15]: > 38 µM (not active)
EC50 [16]: 2.01 µM (active)
EC50 [17]: 7.37 µM (active)
IC50 (Exodeoxyribonuclease V): > 119 µM (inactive)
IC50 [11]: > 119 µM (inactive)

Cc1ccc(SCc2cc(O)nc(SCC(=O)Nc3cc(Cl)ccc3Cl)n2)cc1
EC50 (HEK293 [18]): 6.75 µM (active)
EC50 [19]: 9.13 µM (active)
IC50 (HEK293 [20]): > 20 µM (inactive)
IC50 (HEK293 [21]): > 20 µM (inactive)
IC50 (HEK293 [22]): 9.47 µM (inactive)
EC50 (Streptococcus): 38.5 µM (active)
IC50 [23]: > 20 µM (inactive)
IC50 (HEK293 [24]): > 20 µM (inactive)

O=C(NCCCCc1ccccc1)NC[C@@H]1CC[C@@H](Cc2ccc(-c3ccccc3)cc2)O1
IC50 [3]: 2.6 µM (active)
IC50 [4]: 15.6 µM (active)
IC50 [5]: 2.1 µM (active)

CC(C)C(c1nnnn1C(C)(C)C)N1CCC(Cc2ccccc2)CC1 (centres undefined)
IC50 [1]: > 100 µM (inactive)
IC50 [2]: > 100 µM (not active)
